Measurements: ChEMBL document CHEMBL1134371, “Molecular modeling studies of the Akt PH domain and its interaction with phosphoinositides” (J Med Chem, 2001)

Legend:
[1] = molecular target: RAC-alpha serine/threonine-protein kinase (Homo sapiens) (UniProt P31749); experiment: Inhibition of binding to Protein kinase B (Akt) PH domain; design: scale not given: the % may be the effect or the level left
[2] = molecular target: RAC-alpha serine/threonine-protein kinase (Homo sapiens) (UniProt P31749); experiment: Binding affinity for protein kinase B (Akt) PH domain
[3] = molecular target: RAC-alpha serine/threonine-protein kinase (Homo sapiens) (UniProt P31749); experiment: Binding activity for protein kinase B (Akt) PH domain
[4] = molecular target: RAC-alpha serine/threonine-protein kinase (Homo sapiens) (UniProt P31749); experiment: Inhibition of protein kinase B (Akt) PH domain

Sequence of RAC-alpha serine/threonine-protein kinase (Homo sapiens) (P31749 whole entry, the tested form may be a part): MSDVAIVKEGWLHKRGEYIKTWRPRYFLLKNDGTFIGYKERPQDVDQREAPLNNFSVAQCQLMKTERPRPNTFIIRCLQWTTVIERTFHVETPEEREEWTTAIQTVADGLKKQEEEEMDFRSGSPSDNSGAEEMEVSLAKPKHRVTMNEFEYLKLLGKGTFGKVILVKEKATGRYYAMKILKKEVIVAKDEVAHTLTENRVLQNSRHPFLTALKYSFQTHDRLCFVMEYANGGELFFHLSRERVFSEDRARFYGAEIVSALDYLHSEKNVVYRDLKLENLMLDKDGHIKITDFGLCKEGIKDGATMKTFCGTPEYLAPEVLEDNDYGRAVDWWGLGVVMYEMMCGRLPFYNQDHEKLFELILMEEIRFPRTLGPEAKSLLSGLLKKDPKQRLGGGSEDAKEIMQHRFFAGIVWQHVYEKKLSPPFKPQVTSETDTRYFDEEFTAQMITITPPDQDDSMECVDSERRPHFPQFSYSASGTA

Structure (SMILES)	Activity [1] [%]	Ratio [2]	Activity [3] [%]	Ratio [4]
CCCCCCCCCCCCCCCCCCCC(=O)OC(COC(=O)CCCCCCCCCCCCCCCCC)COP(=O)(O)OC1C(O)C(OP(=O)(O)O)C(OP(=O)(O)O)C(OP(=O)(O)O)C1O (configuration not stated)	-35	0.4		
CCCCCCCCCCCCCCCCCCCC(=O)OC(COC(=O)CCCCCCCCCCCCCCCCC)COP(=O)(O)OC1C(O)CC(OP(=O)(O)O)C(OP(=O)(O)O)C1O (configuration not stated)		0.57	100	
CCCCCCCCCCCCCCCCCCCC(=O)OC(COC(=O)CCCCCCCCCCCCCCCCC)COP(=O)(O)OC1C(O)CCC(OP(=O)(O)O)C1O (configuration not stated)			13	

The next lines start with the values.

Activity [1] [%]	Ratio [2]	Activity [3] [%]	Ratio [4]	Structure (SMILES)
			5	CCCCCCCCCCCCCCCCCCOC[C@H](COC(=O)O[C@@H]1[C@H](O)[C@@H](CO)[C@@H](O)[C@H](O)[C@@H]1O)OC (stereo in doubt; 1)
			32	CCCCCCCCCCCCCCCCCCOC[C@H](COC(=O)O[C@@H]1[C@H](O)[C@@H](CO)[C@@H](O)[C@H](O)[C@@H]1O)OC (stereo in doubt; 2)
